The source of these data is US20080058324A1, “Alpha-Keto Carbonyl Calpain Inhibitors” (SANTHERA PHARMACEUTICALS (SCHWEIZ) AG, priority 2004, published 2008).

Some results are limits rather than exact numbers.

Assay [1] concerns cellular calpains in C2C12 myoblasts. Kind of assay: Calpain Inhibition Assay in C2C12 Myoblasts. It counts as cell-based. Conditions: read-out: Calp I IC50 Myoblast. The method, then: This assay is aimed at monitoring the ability of the substance to inhibit cellular calpains. C2C12 myoblasts are grown in 96-well plates in growth medium (DMEM, 20% foetal calf serum) until they reach confluency. The growth medium is then replaced by fusion medium (DMEM, 5% horse serum). 24 hours later the fusion medium is replaced by fusion medium containing the test substances dissolved in 1 μl DMSO. After 2 hours of incubation at 37° C. the cells are loaded with the calpain fluorogenic substrate Suc-Leu-Tyr-AMC at 400 μM in 50 μl of a reaction buffer containing 135 mM NaCl; 5 mM KCl; 4 mM CaCl2; 1 mM MgCl2; 10 mM Glucose; 10 mM HEPES pH 7.25 for 20 min at room temperature. The calcium influx, necessary to activate the cellular calpains, is evoked by the addition of 50 μl reaction buffer containing 20 μM of the calcium ionophore Br-A-23187 (Molecular Probes). The fluorescence of the cleavage product AMC is measured as described above during 60 min at 37° C. at intervals of 1 min. The IC50 values are determined as described above. Comparison of the IC50 determined in the enzymatic calpain inhibition assay to the IC50 determined in the C2C12 myoblasts calpain inhibiton assay, allows to evaluate the cellular uptake or the membrane permeability of the substance.

In a further assay the target is T1, 20S Proteasome (Oryctolagus cuniculus, UniProt G1T4Q9).
T1 sequence (G1T4Q9 60-263): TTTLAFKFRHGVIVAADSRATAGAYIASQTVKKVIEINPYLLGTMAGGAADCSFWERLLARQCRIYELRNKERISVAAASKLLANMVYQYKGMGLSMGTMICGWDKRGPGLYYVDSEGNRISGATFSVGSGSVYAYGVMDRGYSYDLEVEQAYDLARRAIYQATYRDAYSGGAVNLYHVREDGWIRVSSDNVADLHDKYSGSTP
The assay is described as follows: 20S Proteasome Assay. The assay is classed as biochemical, Rabbit. Conditions: read-out: 20S Prot IC50. Here is the method: 25 μl of a reaction buffer containing 400 μM of the fluorogenic substrate Suc-Leu-Leu-Val-Tyr-AMC (Bachem) are dispensed per well of a white microtiter plate. Test compounds dissolved in 0.5 μl DMSO are added. To start the reaction; 25 μl of reaction buffer containing 35 ng of enzyme (20S Proteasome, Rabbit, Calbiochem) are added. The increase in fluorescence (excitation at 360 nm; emission at 440 nm) is measured over 30 min at 30° C. at 30″. The IC50's are then determined from the slopes.

Assay [2] relates to Primary fibroblasts from donors with Friedreich Ataxia (FRDA). Kind of assay: BSO Assay (cell viability of Friedreich Ataxia fibroblasts under BSO oxidative stress). It counts as cell-based. Conditions: Homo sapiens, Fibroblast. The method, then:
Primary fibroblasts were derived from donors with molecular diagnosis for Friedreich Ataxia (FRDA) and control donors with no mitochondrial disease. Cell lines were obtained from Coriell Cell Repositories (Camden, N.J.; catalog numbers GM04078, GM08402 and GM08399 respectively). All cell types were diagnosed on the molecular level for intronic GAA triplet repeat length of at least 400-450 repeats using a PCR-based method. Experiments were carried out as described in the literature (M. L. Jauslin et al., Human Mol. Genet., 2002, 11, 3055-3063): Cells were seeded in microtiter plates at a density of 4′000 cells per 100 μl in growth medium consisting of 25% (v/v) M199 EBS and 64% (v/v) MEM EBS without phenol red (Bioconcept, Allschwil, Switzerland) supplemented with 10% (v/v) fetal calf serum (PAA Laboratories, Linz, Austria), 100 U/ml penicillin, 100 μg/ml streptomycin (PAA Laboratories, Linz, Austria), 10 μg/ml insulin (Sigma, Buchs, Switzerland), 10 ng/ml EGF (Sigma, Buchs, Switzerland), 10 ng/ml bFGF (PreproTech, Rocky Hill, N.J.) and 2 mM glutamine (Sigma, Buchs, Switzerland). The cells were incubated in the presence of various test compounds for 24 h before addition of L-buthionine-(S,R)-sulfoximine (BSO) to a final concentration of 1 mM. Cell viability was measured after the first signs of toxicity appeared in the BSO-treated controls (typically after 16 to 48 h). The cells were stained for 60 min at room temperature in PBS with 1.2 μM calceinAM and 4 μM ethidium homodimer (Live/Dead assay, Molecular Probes, Eugene, Oreg.). Fluorescence intensity was measured with a Gemini Spectramax XS spectrofluorimeter (Molecular Devices, Sunnyvale, Calif.) using excitation and emission wavelengths of 485 nm and 525 nm respectively.

Take `CCNC(=O)C(=O)[C@H](Cc1ccc(Cl)cc1)NC(=O)[C@@H](NC(=O)[C@H](Cc1ccccc1)NC(=O)CCCCc1cccs1)C(C)C` [Example 1]: the IC50 in assay [1] worked out at 0.05 µM; on 20S Proteasome, 0.12 µM. The molecule further showed an EC50 in assay [2] of 0.7 µM.

As to `CCNC(=O)C(=O)C(Cc1ccc(OC)cc1)NC(=O)C(NC(=O)C(CCc1ccccc1)NC(=O)CCc1cccs1)C(C)C` (stereo not drawn) [Example 520], the IC50 is 0.01 µM in assay [1] and 0.023 µM at 20S Proteasome. Moreover, in assay [2], the EC50 is < 0.001 µM.

Take `CCNC(=O)C(=O)C(Cc1ccc(Cl)cc1)NC(=O)C(NC(=O)C(Cc1cccc2ccccc12)NC(=O)CCCCc1cccs1)C(C)C` (stereo not drawn) [Example 22]: the IC50 is 0.15 µM in assay [1] and < 0.01 µM at 20S Proteasome. In addition, in assay [2], it took 0.01 µM to reach a half-maximal effect (EC50).
